Measured values from paper PMC3722296 (PLoS ONE, 2013).
“Also recorded” adds a separate entry of the source. Where no end group is shown, it is not given here.

Columns and labels:
S. aureus S1 = assay: Antibiotic susceptibility, agar disc diffusion; format: cell-based, Staphylococcus aureus; settings: agar disc diffusion method
Method: (§1) S1 was isolated from the blood of a patient and S2 was isolated from the sputum of a neonate. After isolation and identification, S. aureus strains were assessed for their susceptibility to various antibiotics, using the agar disc diffusion method. S1 was found Methicillin resistant (MRSA) and is also resistant to Amoxicillin, Oxacillin, Amikacin, Tobramycin, Fluoroquinolones, Erythromycin and Clindamycin. However, it was susceptible to Gentamicin, Synercid, Co-trimoxazole, Rifampicin, Fusidic acid, Vancomycin, Teicoplanin and Linezolid.

S. aureus S2 = assay: Antibiotic susceptibility, agar disc diffusion; format: cell-based, Staphylococcus aureus; settings: agar disc diffusion method
Method: as §1

S. aureus = assay: Antibacterial activity against S. aureus, (strains together or not specified); format: cell-based, Staphylococcus aureus
Method: (§2) Different S. aureus strains described above were first pre-cultured aerobically at 37°C for 20 h in a Mueller-Hinton-Broth (MHB) medium, pH 7.3 (Difco Laboratories, Detroit, MI). Bacteria were suspended at absorbance of 0.001 at 620 nm in the MHB medium. […] Ten µl final volumes (10–200 µg/mL) of synthetic peptides (LL-37, bCAT, hCAT and bCTL) were incubated in microtitration plates with 90 µl of a mid-logarithmic phase culture of bacteria, with a starting absorbance of 0.001 at 620 nm. In the initial inoculi, bacteria were quantified by the agar plate spreading method which was 5×10^5 colony forming units (CFU)/mL. Tetracycline (10 mg/L) and Cefotaxime (0.1 mg/L) were used as positive controls. Microbial growth was assessed by the increase of absorbance after 24 h incubation at 37°C., [29] The A620 nm value of control cultures growing in the absence of peptide and antibiotics was defined as 100% growth. A620 nm zero with the antibiotics (Tetracycline and Cefotaxime) was taken as 100% inhibition. Absence of bacterial growth was verified by agar plate spreading. Each assay was performed in triplicates.

[1] = S. aureus ATCC49775 culture supernatant (S49775), MHB medium, filtered; settings: S. aureus ATCC49775, 37°C, up to 24 h
[2] = S. aureus ATCC49775 culture supernatant with protease inhibitors (Pi+S49775); settings: S. aureus ATCC49775, 37°C, up to 24 h
[3] = S. aureus S2 (MSSA) culture supernatant, MHB medium, filtered; settings: 37°C, up to 24 h
[4] = S. aureus ATCC25923 culture supernatant with protease inhibitors (Pi+S25923); settings: S. aureus ATCC25923, 37°C, up to 24 h
[5] = S. aureus S2 culture supernatant with protease inhibitors (Pi+S2); settings: S. aureus S2 (MSSA), 37°C, up to 24 h
[6] = S. aureus S1 (MRSA) culture supernatant, MHB medium, filtered; settings: 37°C, up to 24 h
[7] = S. aureus ATCC25923 culture supernatant (S25923), MHB medium, filtered; settings: S. aureus ATCC25923, 37°C, up to 24 h
[8] = S. aureus S1 culture supernatant with protease inhibitors (Pi+S1); settings: S. aureus S1 (MRSA), 37°C, up to 24 h
S. aureus ATCC25923 = format: cell-based, Staphylococcus aureus; settings: ATCC25923, 24 h, pH 7.3
Method: as §2
(§3) The MIC values (µg/mL) are reported as means of three independent experiments. To determine significance, between different peptides (rows) and bacterial strains (columns), one way ANOVA was used. Overall significance and correlation was evaluated by 4×4 factorial ANOVA for independent samples. Significance was accepted at p≤0.05.

S. aureus ATCC49775 = format: cell-based, Staphylococcus aureus; settings: ATCC49775, 24 h, pH 7.3
Method: as §2, §3

S. aureus S1 (MRSA) = format: cell-based, Staphylococcus aureus; settings: S1, 24 h, pH 7.3
Method: as §1, §2, §3

S. aureus S2 (MSSA) = format: cell-based, Staphylococcus aureus; settings: S2, 24 h, pH 7.3
Method: as §1, §2, §3

human erythrocytes = settings: cited from earlier work
Excerpt: Due to continuous resistance development by S. aureus, the interest for natural AMPs is increasing because some of them display potent antibacterial activity. However, secondary reactions such as hemolytic activity, [36] limit their use as systemic anti-infective drugs. Until recently, no such reaction was reported for the antimicrobial Cgs-derived peptides in the literature. Several CgA-derived peptides were previously characterized to display antimicrobial properties, [9] however, data concerning killing of S. aureus is not reported. CAT was previously reported, to be active against diff ...

[9] = tested on: staphylococcal proteases released into bacterial supernatants; settings: 37°C, 24 h; for degradation by four strain supernatants in presence of protease inhibitors: protease inhibitor cocktail + 100 µM 1–10 phenanthroline; for degradation by culture supernatant of S2 / degradation by culture supernatants S49775, S25923 and S1: no protease inhibitors, RP-HPLC 214 nm, sequencing, MALDI-TOF, triplicate wells
Method: S. aureus strains were precultured and plated on the agar plates and cultivated for 24 h at 37°C. After incubation, one colony per isolate was transferred to 10 mL of the MHB medium and incubated at 37°C for about 30 h to late stationary growth phase. After incubation, cultures were centrifuged at 10,000×g for 15 min and supernatants were filtered using a 0.22 µM Millex®-GV (Millipore, Carrigtwohill, Ireland) to eliminate bacteria. The supernatants were stored at −20°C until further use. In order to check sterility, 1 mL of each supernatant was incubated at 37°C for 48 h. Absence of a colony was interpreted as lack of viable bacteria.
(§4) Triplicate wells were treated for each concentration of peptide. In parallel, several controls were performed: with and without peptides in MHB medium.
For which, protease inhibitor cocktail (complete protease inhibitors except metalloproteases) (Roche Diagnostic GmbH, Mannheim, Germany) supplemented with 100 µM of 1–10 phenanthroline (metalloprotease inhibitor) (Sigma Aldrich GmbH, Steinheim, Germany) was added to bacterial supernatants before the addition of synthetic peptides. The whole suspension was incubated at 37°C for 24 h prior to being analyzed by RP-HPLC.
(§5) The synthetic peptides treated with bacterial supernatants and different controls including culture medium, bacterial supernatants, and synthetic peptides were separated using a Dionex HPLC system (Ultimate 3000; Sunnyvale, CA USA) on a Nucleosil reverse-phase 300–5C18-column (4×250 mm; particle size, 5 µm; porosity, 300 Å) (Macherey Nagel Hoerdt, France). Absorbance was monitored at 214 nm, and the solvent system consisted of 0.1% (v/v) TFA in water (solvent A) and 0.09% (v/v) TFA in 70% (v/v) acetonitrile-water (solvent B). Elution was performed at a flow rate of 700 µL/min, with the gradient as indicated on chromatograms. Fractions were collected with one min time interval. They were subsequently concentrated by evaporation by using a speed-vac, however not allowing them to dry completely.
The N-terminal sequence of purified peptides was determined by automatic Edman degradation analysis on a Procise microsequencer (Applied Biosystems, Courtaboeuf, France). Samples purified by HPLC were loaded on polybrene-treated glass-fiber filters. Phenylthiohydantoin-amino acids (Pth-Xaa) were identified by chromatography on a C18 column (PTH C-18, 2.1 mm×200 mm).
Mass determination was carried out on a Brucker BIFLEX™ Matrix-Assisted Laser Desorption Ionization – Time-Of-Flight mass spectrometer (MALDI-TOF) (equipped with the high resolution optics (SCOUT™) with X–Y multi-sample probe, a gridless reflector and with the HIMAS™ linear detector). With a maximum accelerating potential of 30 kV, the system can be operated either in linear or the reflective mode. Ionization was carried out with a 337-nm beam from a nitrogen laser with a repetition rate of 3 Hz. The output signal from the detector was digitized at a sampling rate of 250 MHz in linear mode and 500 MHz in reflector mode using a 1 GHz digital oscilloscope (Lecroy model). Brucker supplied software hosted in Sun sparcworkstation was used for data processing and the instrumental control. […] These studies were realized using the matrix α-cyano-4-hydroxycinnamic acid, obtained from Sigma, and prepared as a saturated solution in acetone. A total of 1–2 µl of the sample matrix aliquot solution was deposited on the probe and dried by ambient air. A thin layer matrix crystal was obtained after rapid spreading and evaporation. […] A micromolar analyte solution was applied to the matrix and allowed to dry under moderate vacuum. The whole preparation was washed by 1 μl of trifluoroacetic acid (0.5%) aqueous solution. This cleaning procedure helps remove remaining alkaline cations and often leads to an increase in sensitivity.

MHB medium = settings: 37°C, up to 24 h
[10] = MHB medium without supernatant, 37°C, 24 h; RP-HPLC
Method: as §4, §5

Question: For `NCC[C@H](O)C(=O)N[C@@H]1C[C@H](N)[C@@H](O[C@H]2O[C@H](CN)[C@@H](O)[C@H](O)[C@H]2O)[C@H](O)[C@H]1O[C@H]1O[C@H](CO)[C@@H](O)[C@H](N)[C@H]1O` [Amikacin], which “susceptibility of strain S1” value (S. aureus S1) is on record?
Answer: resistant

Question: Which “susceptibility of strain S1” value (S. aureus S1) does the source give for `CC1(C)S[C@@H]2[C@H](NC(=O)[C@H](N)c3ccc(O)cc3)C(=O)N2[C@H]1C(=O)O` [Amoxicillin] here?
Answer: resistant

Question: With `CCC[C@@H]1C[C@@H](C(=O)N[C@@H]([C@H]2O[C@H](SC)[C@H](O)[C@@H](O)[C@H]2O)[C@H](C)Cl)N(C)C1` [Clindamycin] as the compound, how does the “susceptibility of strain S1” value (S. aureus S1) read?
Answer: resistant

Question: For `CC[C@H]1OC(=O)[C@H](C)[C@@H](O[C@H]2C[C@@](C)(OC)[C@@H](O)[C@H](C)O2)[C@H](C)[C@@H](O[C@@H]2O[C@H](C)C[C@H](N(C)C)[C@H]2O)[C@](C)(O)C[C@@H](C)C(=O)[C@H](C)[C@@H](O)[C@]1(C)O` [Erythromycin], which “susceptibility of strain S1” value (S. aureus S1) is on record?
Answer: resistant

Question: With `CC(=O)O[C@H]1C[C@@]2(C)[C@@H](C[C@@H](O)[C@H]3[C@@]4(C)CC[C@@H](O)[C@@H](C)[C@@H]4CC[C@@]32C)/C1=C(\CCC=C(C)C)C(=O)O` [Fusidic acid] as the compound, how does the “susceptibility of strain S1” value (S. aureus S1) read?
Answer: susceptible

Question: For `CNC(C)C1CCC(N)C(OC2C(N)CC(N)C(OC3OCC(C)(O)C(NC)C3O)C2O)O1` (centres unmarked) [Gentamicin], which “susceptibility of strain S1” value (S. aureus S1) is on record?
Answer: susceptible

Question: Which “susceptibility of strain S1” value (S. aureus S1) does the source give for `CC(=O)NC[C@H]1CN(c2ccc(N3CCOCC3)c(F)c2)C(=O)O1` [Linezolid] here?
Answer: susceptible

Question: Which results are given for `COc1cccc(OC)c1C(=O)N[C@@H]1C(=O)N2[C@@H]1SC(C)(C)[C@@H]2C(=O)O` [Methicillin]?
Answer: susceptibility of strain S2 (S. aureus S2): susceptible; susceptibility of strain S1 (S. aureus S1): resistant

Question: With `Cc1onc(-c2ccccc2)c1C(=O)N[C@@H]1C(=O)N2[C@@H]1SC(C)(C)[C@@H]2C(=O)O` [Oxacillin] as the compound, how does the “susceptibility of strain S1” value (S. aureus S1) read?
Answer: resistant

Question: With `CO[C@H]1/C=C/O[C@@]2(C)Oc3c(C)c(O)c4c(O)c(c(/C=N/N5CCN(C)CC5)c(O)c4c3C2=O)NC(=O)/C(C)=C\C=C\[C@H](C)[C@H](O)[C@@H](C)[C@@H](O)[C@@H](C)[C@H](OC(C)=O)[C@@H]1C` [Rifampicin] as the compound, how does the “susceptibility of strain S1” value (S. aureus S1) read?
Answer: susceptible

Question: For `NC[C@H]1O[C@H](O[C@H]2[C@H](O)[C@@H](O[C@H]3O[C@H](CO)[C@@H](O)[C@H](N)[C@H]3O)[C@H](N)C[C@@H]2N)[C@H](N)C[C@@H]1O` [Tobramycin], which “susceptibility of strain S1” value (S. aureus S1) is on record?
Answer: resistant

Question: For `CN[C@H](CC(C)C)C(=O)N[C@H]1C(=O)N[C@@H](CC(N)=O)C(=O)N[C@H]2C(=O)N[C@H]3C(=O)N[C@H](C(=O)N[C@H](C(=O)O)c4cc(O)cc(O)c4-c4cc3ccc4O)[C@H](O)c3ccc(c(Cl)c3)Oc3cc2cc(c3O[C@@H]2O[C@H](CO)[C@@H](O)[C@H](O)[C@H]2O[C@H]2C[C@](C)(N)[C@H](O)[C@H](C)O2)Oc2ccc(cc2Cl)[C@H]1O` [Vancomycin], which “susceptibility of strain S1” value (S. aureus S1) is on record?
Answer: susceptible

Question: Which “susceptibility of strain S1” value (S. aureus S1) does the source give for Co-trimoxazole here?
Answer: susceptible

Question: Which “concentration at which antibacterial activities are displayed” value (S. aureus; data not shown) does the source give for “FLE-RSMRLSFRARG [shorter peptide lacking the C-terminal end (YGFR) of CTL]” here?
Answer: 200 µg/mL

Question: For “FLE-RSMRLSFRARGYGFR [FLE-CTL, CTL derived peptide with a hydrophobic N-terminal end]”, which “antibacterial activity against S. aureus” value (S. aureus; at 400 µg/mL, recent experiments) is on record?
Answer: inactive

Question: Which results are given for RSMRLSFRARGYGFR?
Answer: not cleaved [1]: not degraded by any of the staphylococcal strains tested; not cleaved [2]: remains unaffected by S. aureus supernatants with or without protease inhibitors; not cleaved [3]: not degraded by any of the staphylococcal strains tested; not cleaved [4]: remains unaffected by S. aureus supernatants with or without protease inhibitors; not cleaved [5]: remains unaffected by S. aureus supernatants with or without protease inhibitors; not cleaved [6]: not degraded by any of the staphylococcal strains tested; not cleaved [7]: not degraded by any of the staphylococcal strains tested; not cleaved [8]: remains unaffected by S. aureus supernatants with or without protease inhibitors

Question: Which MIC (S. aureus ATCC25923) does the source give for RSMRLSFRARGYGFR [bCTL, cateslytin] here?
Answer: 40 µg/mL

Question: And the MIC (S. aureus ATCC49775)?
Answer: 37 µg/mL

Question: What about the MIC (S. aureus S1 (MRSA)) of the same compound?
Answer: 37 µg/mL

Question: What about the MIC (S. aureus S2 (MSSA)) of the same compound?
Answer: 45 µg/mL

Question: What about the hemolytic activity (human erythrocytes) of the same compound?
Answer: not hemolytic

Question: And the “MIC value against different strains of S. aureus” value (S. aureus; across ATCC49775, ATCC25923, S1, S2)?
Answer: 37 to 45 µg/mL

Question: And the “degradation by any of the staphylococcal strains tested (four supernatants)” value ([9]; ATCC49775, ATCC25923, S1, S2 supernatants, peptide at MIC concentration, RP-HPLC)?
Answer: not degraded

Question: What about the “degradation by four strain supernatants in presence of protease inhibitors” value ([9]; RP-HPLC) of the same compound?
Answer: remains unaffected

Question: With RSMRLSFRARGYGFRGPGLQL as the compound, how does the cleaved bond [1] read?
Answer: L348-S349

Question: And the not cleaved (MHB medium)?
Answer: In MHB medium, bCAT was not processed

Question: What about the not cleaved [2] of the same compound?
Answer: not cleaved by any of the four strain supernatants tested in presence of protease inhibitors

Question: And the cleaved bond [3]?
Answer: S349-F350; also recorded: G356-F357

Question: And the not cleaved [4]?
Answer: not cleaved by any of the four strain supernatants tested in presence of protease inhibitors

Question: What about the not cleaved [5] of the same compound?
Answer: not cleaved by any of the four strain supernatants tested in presence of protease inhibitors

Question: What about the cleaved bond [6] of the same compound?
Answer: L348-S349

Question: And the cleaved bond [7]?
Answer: L348-S349

Question: And the not cleaved [8]?
Answer: not cleaved by any of the four strain supernatants tested in presence of protease inhibitors

Question: For “RSMRLSFRARGYGFRGPGLQL [bCAT, catestatin]”, which MIC (S. aureus ATCC25923) is on record?
Answer: 100 µg/mL

Question: And the MIC (S. aureus ATCC49775)?
Answer: 100 µg/mL

Question: What about the MIC (S. aureus S1 (MRSA)) of the same compound?
Answer: 100 µg/mL

Question: And the MIC (S. aureus S2 (MSSA))?
Answer: 115 µg/mL

Question: What about the “processing in MHB medium” value [10] of the same compound?
Answer: not processed

Question: What about the “degradation by culture supernatant of S2” value ([9]; peptide at MIC concentration) of the same compound?
Answer: largely cleaved

Question: What about the “degradation by culture supernatants S49775, S25923 and S1” value ([9]; peptide at MIC concentration) of the same compound?
Answer: processed

Question: And the “degradation by four strain supernatants in presence of protease inhibitors” value ([9]; RP-HPLC)?
Answer: not cleaved

Question: Which MIC (S. aureus ATCC25923) does the source give for “SSMKLSFRARAYGFRGPGPQL [hCAT, catestatin]” here?
Answer: 135 µg/mL

Question: And the MIC (S. aureus ATCC49775)?
Answer: 125 µg/mL

Question: And the MIC (S. aureus S1 (MRSA))?
Answer: 130 µg/mL

Question: What about the MIC (S. aureus S2 (MSSA)) of the same compound?
Answer: 150 µg/mL

Question: What about the “processing in MHB medium” value [10] of the same compound?
Answer: not cleaved

Question: What about the “degradation by culture supernatant of S2” value ([9]; peptide at MIC concentration) of the same compound?
Answer: completely cleaved

Question: And the “degradation by culture supernatants S49775, S25923 and S1” value ([9]; peptide at MIC concentration)?
Answer: partially processed

Question: With SSMKLSFRARGYGFRGPGPQL as the compound, how does the cleaved bond [1] read?
Answer: L356-S357

Question: What about the not cleaved (MHB medium) of the same compound?
Answer: In presence of MHB medium, hCAT was not cleaved

Question: What about the cleaved bond [3] of the same compound?
Answer: G364-F365; also recorded: S357-F358

Question: What about the cleaved bond [6] of the same compound?
Answer: L356-S357

Question: And the cleaved bond [7]?
Answer: L356-S357

Question: Which “susceptibility of strain S1” value (S. aureus S1) does the source give for Teicoplanin here?
Answer: susceptible
